# Reference: PMC7004151, “Synthesis and Structure‐Activity Relationships of N‐(4‐Benzamidino)‐Oxazolidinones: Potent and Selective Inhibitors of Kallikrein‐Related Peptidase 6” (Chemmedchem, 2019)
# Columns and labels:
# [1] = Hepatocytes intrinsic clearance; format: in vitro ADME
# Method: Hepatocytes Intrinsic clearance (CLint) assay: Cryopreserved vials of mouse cryopreserved hepatocytes, supplied by Life Technologies, were thawed according to manufacturer's instructions and cells re‐suspended in Williams Medium E (WME) containing cell maintenance supplement pack (CM4000, Life Technologies). Hepatocytes were incubated in suspension (0.5x10^6 cells/mL) in 48 well non‐collagen coated cell culture plates for 10 min at 37 °C, 95 % O2 5 % CO2. Upon addition of an equal volume of supplemented WME containing 1 μM test compound, an aliquot of incubation solution was removed to acetonitrile containing internal standard (final concentration 0.5 μM test compound and a cell density of 0.25×10^6 cells/mL). Similarly, aliquots were removed at 3, 6, 9, 15, 30, 45, 60, 90 and 120 min. 100 μL of 80 : 20 H2O/MeCN was added to all samples and the analysis plate was centrifuged for 10 min at room temperature prior to injection and analysis of samples by UPLC‐MS/MS. The response (area ratio of test compound to internal standard) was plotted against time using an exponential decay model and rate of disappearance calculated. Hepatocyte CLint (mL/min/10^6 cells) was scaled to in vivo CLint (mL/min/g liver) using the hepatocellularity scaling factor of 120×10^6 cells/g of liver.
# [2] = tested on: HCT116 cells; assay: HCT116 Matrigel invasion assay; format: cell-based; settings: after 24 h; 9 at multiple concentrations; 32 at 50 nM and 500 nM
# Method: Figure 5 HCT116 cells were treated with 9 or 32 at the indicated concentrations and plated on Matrigel®‐coated filters. The upper chamber contained serum‐free medium, while the lower chamber contained 10 % fetal bovine serum. After 24 h, the number of invading cells was measured optically. (A) This figure is one representative example of four biological replicates, each with similar outcomes. Error bars are SEM. Technical replicates: DMSO and 9 at 5 nM (n=3); 9 at 50 and 500 nM and 32 at all concentrations (n=6). Statistical significance was calculated using an unpaired two‐tailed t‐test. n.s=p≥0.05; **=p<0.01; ***=p<0.001. (B) Representative images (Scale bar, […]) of stained invaded cells outside of the inserts 24 h hours after treatment with 9, 32, or DMSO solvent control at the indicated concentrations. Phase contrast images were taken with EVOS FL Cell imagine system FL Auto microscope (Bio‐Rad).
# Invasion assay: The HCT116 colorectal adenocarcinoma cell line (ATCC® CCL‐247™) was maintained in Dulbecco's Modified Eagle Medium (DMEM) with […] glucose, L‐glutamine w/o sodium pyruvate, supplemented with 10 % FBS and 1 % penicillin/streptomycin. […] The samples were transferred to a new 96 well plate and read at 560 nm on a Synergy 2 Multi‐Detection Microplate Reader (Bio‐Tek Instruments, Inc., Winooski, VT).
# [3] = molecular target: KLK4 (Homo sapiens, UniProt Q9Y5K2); assay: KLK4 inhibition (selectivity); format: biochemical; settings: read-out: KLK4 pIC50 (converted)
# Description: Table 3 Activity of synthesized inhibitors against KLK6 and related proteases. | column: KLK4^a
# [4] = in vitro; settings: female, CD1, mouse, plasma
# Method: Plasma protein binding assay: Briefly, a 96 well equilibrium dialysis apparatus was used to determine the free fraction in plasma for each compound (HT Dialysis LLC, Gales Ferry, CT). Membranes (12–14 kDa cut‐off) were conditioned in deionized water for 60 minutes, followed by conditioning in 80 : 20 deionized water: ethanol for overnight at 4 °C and then rinsed in isotonic buffer before use. Female CD1 mouse plasma was removed from the freezer and allowed to thaw on the day of experiment. Thawed plasma was then centrifuged (Allegra X12‐R, Beckman Coulter, USA), spiked with test compound (final concentration 10 μg/mL), and 150 μL aliquots (n=6 replicate determinations) loaded into the 96‐well equilibrium dialysis plate. Dialysis vs isotonic buffer (150 μL) was carried out for 5 h in a temperature‐controlled incubator at 37 °C (Barworld scientific Ltd, UK) using an orbital microplate shaker at 100 rpm (Barworld scientific Ltd, UK). […] All samples were analyzed by UPLC‐MS/MS on a Quattro Premier XE Mass Spectrometer (Waters Corporation, USA). The unbound fraction was determined as the ratio of the peak area in buffer to that in plasma.
# [5] = molecular target: T1, KLK7 (Homo sapiens, UniProt P49862); assay: KLK7 enzyme inhibition assay; format: biochemical; settings: read-out: KLK7 pIC50 (converted)
# T1 construct: purchased 2B scientific
# Method: Enzyme inhibition assays: All chemicals were purchased from Sigma Aldrich (Gillingham, UK) unless otherwise stated. All experiments were conducted in 384 well black, low volume microplates (Greiner 784076) with a final volume of 20 μL and compounds were dispensed into assay plates using an ECHO 550 acoustic dispenser (Labcyte). KLK6 (5 nM) (prepared as in ref. 21) was incubated with test compounds for 30 min at room temperature in assay buffer (50 mM Tris, pH 7.5, 150 mM NaCl, 1 mM EDTA, 0.05 % tween 20, 0.1 % bovine serum albumin (BSA), 1 mM dithiothreitol (DTT)) before the reaction was started by addition of 20 μM Boc‐Phe‐Ser‐Arg‐AMC substrate (Bachem). Fluorescence intensity was read at ex/em 355/460 following incubation for 2 h in the dark at room temperature.
# Assays using KLK7 and KLK8 (2B scientific) were conducted in the same manner as for KLK6 with the following exceptions. Both KLK7 and KLK8 required activation before assaying. KLK7 was combined with an equal volume of 20 μg/ml thermolysin (R&D systems) in activation buffer (50 mM Tris, pH 7.5, 10 mM CaCl2, 150 mM NaCl and 0.05 % Brij‐L23) and incubated at 37 °C for 2 h, the reaction was stopped with the addition of 100 mM EDTA in stop solution (50 mM Tris, 150 mM NaCl, pH 8.5). KLK8 was combined with an equal volume of 0.4 mU/mL lysyl endopeptidase (Alpha laboratories) in activation buffer (50 mM Tris, pH 8.0) and incubated at 37 °C for 30 min. Activated KLK7 (40 nM) and KLK8 (25 nM) were assayed with 40 μM Mca‐RPKPVE‐Nval‐WRK(Dnp)‐NH2 fluorogenic MMP substrate (R&D systems) and 25 μM Boc‐V‐P‐R‐AMC substrate (R&D systems), respectively.
# Chain of KLK4 (Q9Y5K2 31-254, species assumed): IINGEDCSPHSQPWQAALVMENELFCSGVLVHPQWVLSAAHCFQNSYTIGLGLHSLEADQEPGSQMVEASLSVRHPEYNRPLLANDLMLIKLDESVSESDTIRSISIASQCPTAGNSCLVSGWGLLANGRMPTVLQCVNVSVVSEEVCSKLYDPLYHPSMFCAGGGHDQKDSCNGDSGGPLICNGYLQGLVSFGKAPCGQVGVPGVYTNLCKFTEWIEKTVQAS
# T1 sequence (P49862 30-253, species assumed): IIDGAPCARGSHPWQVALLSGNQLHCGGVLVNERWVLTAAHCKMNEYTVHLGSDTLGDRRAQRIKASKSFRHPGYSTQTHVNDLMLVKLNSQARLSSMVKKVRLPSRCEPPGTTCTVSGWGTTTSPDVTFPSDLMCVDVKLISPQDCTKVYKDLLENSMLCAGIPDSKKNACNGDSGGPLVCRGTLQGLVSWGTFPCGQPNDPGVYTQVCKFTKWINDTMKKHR
smiles,measurement,setting,value
"CC[C@H](NC(=O)[C@H]1CN(c2ccc(C(=N)N)cc2)C(=O)O1)c1cccc2ccccc12 [Compound 32, (5R)‐3‐(4‐carbamimidoylphenyl)‐N‐((S)‐1‐(naphthalen‐1‐yl)propyl)‐2‐oxooxazolidine‐5‐carboxamide]",Mouse Hep Cl,[1],2.3 mL/min/g
same,invasion of HCT116 cells,[2],significant reduction in invasion
same,IC50,[3],158 nM
same,"fraction unbound at 5 h, 10 μg/mL",[4],0.11
same,IC50,[5],> 20000 nM
